What was measured:
[1] = system: HT-29 cells; assay: cells; settings: Homo sapiens, HT-29, 48 h, read-out: HT-29 IV (intermediate value)
Procedure: (§1) Cell viability was evaluated by MTT assay.
(§2) It is necessary for this IV to have a method of comparison for the combination of experiments.
(§3) Human colorectal cancer HT-29 and prostate cancer PC-3 cell lines were obtained from the American Type Culture Collection (ATCC; Manassas, VA, USA) and maintained according to ATCC’s recommendations at 37 °C and 5% CO2 in appropriate medium supplemented with 10% foetal bovine serum, 100 U/mL penicillin G and 100 µg/mL streptomycin. Cells were maintained in the logarithmic growth phase at all times. The media were changed every 2 days and trypsinised with 0.25% trypsin–EDTA. A total of 100 µL of HT-29 cells (7500 cells/well) or PC-3 cells (5000 cells/well) were seeded in 96-well plates and allowed to adhere overnight before drug exposure. After 24 h, the cell culture media were replaced with 100 µL of drug-containing media. […]
(§4) The IV value was first determined for each drug alone in HT-29 and PC-3 cells. […] Both Drug A and Drug B concentrations were variable, and the combined effects of equipotent concentrations (fixed ratio) of the IV values for each drug were evaluated.
(§5) For the MTT protocol, after drug treatment, the cell medium was removed and 100 µL/well of MTT solution (0.5 mg/mL in PBS) was added. […] Absorbance was measured at 570 nm in an automated microplate reader (Tecan Infinite M200, Tecan Group Ltd., Männedorf, Switzerland). […]

[2] = system: PC-3 cells; assay: cells; settings: Homo sapiens, PC-3, 48 h, read-out: PC-3 IV (intermediate value)
Procedure: as §1, §2, §3, §4, §5

| IC50 [1] | IC50 [2] | SMILES |
| --- | --- | --- |
| 2580 nM | – | O=c1[nH]cc(F)c(=O)[nH]1 [5-FU, 5-fluorouracil] |
| – | 10 nM | CC(=O)O[C@H]1C(=O)[C@@]2(C)[C@H]([C@H](OC(=O)c3ccccc3)[C@]3(O)C[C@H](OC(=O)[C@H](O)[C@@H](NC(=O)c4ccccc4)c4ccccc4)C(C)=C1C3(C)C)[C@]1(OC(C)=O)CO[C@@H]1C[C@@H]2O [PTX, paclitaxel] |

Source: PMC8584931 (International Journal of Molecular Sciences, 2021)
